Measurements: PMC6122585 (Bioconjugate chemistry, 2017)

Assays:
[1] = tested on: αvβ5; details: cited from earlier work
[2] = tested on: αvβ3; details: cited from earlier work
[3] = tested on: SW480 ITGB6 high cells; experiment: Long-term cytotoxicity, SW480 ITGB6 high; format: cell-based, human; details: SW480 versus SW480 ITGB6 high, Figure S7

Substance | αvβ5 integrin targeting (in words) [1] | αvβ3 integrin targeting (in words) [2] | effect of ITGB6 transfection on sensitivity [3]
c(RGDfK) | target αvβ3 and αvβ5 integrins | target αvβ3 and αvβ5 integrins | 
cilengitide (RGDFV; chains of the INN, looked up) |  |  | ITGB6 transfection did not impact on the sensitivity
